Columns and labels:
Experiment in all cases: relative viability (nuclei count vs DMSO), 5 days (fraction); higher = more cells survive
EHT 1864 + Navitoclax = compound: C1COCCN1CC2=CC(=O)C(=CO2)OCCCCCSC3=C4C=CC(=CC4=NC=C3)C(F)(F)F [EHT 1864] + CC1(C)CCC(c2ccc(Cl)cc2)=C(CN2CCN(c3ccc(C(=O)NS(=O)(=O)c4ccc(N[C@H](CCN5CCOCC5)CSc5ccccc5)c(S(=O)(=O)C(F)(F)F)c4)cc3)CC2)C1 [Navitoclax] (partner 0.5 µM)
How it was run: (§1)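 Five library-drug doses in √10 steps were combined with a fixed anchor-drug dose, or a single drug was given alone, by pin tool to lung cancer cell lines in 1536-well plates the day after seeding. Nuclei were stained and counted after 5 days. Relative viability is the nuclei count in treated wells over that in vehicle wells, taken as the median of duplicate plates.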

EHT 1864 + Olaparib = compound: C1COCCN1CC2=CC(=O)C(=CO2)OCCCCCSC3=C4C=CC(=CC4=NC=C3)C(F)(F)F [EHT 1864] + O=C(c1cc(Cc2n[nH]c(=O)c3ccccc23)ccc1F)N1CCN(C(=O)C2CC2)CC1 [Olaparib] (partner 8 µM)
How it was run: as §1

EHT 1864 + Crizotinib = compound: C1COCCN1CC2=CC(=O)C(=CO2)OCCCCCSC3=C4C=CC(=CC4=NC=C3)C(F)(F)F [EHT 1864] + C[C@@H](Oc1cc(-c2cnn(C3CCNCC3)c2)cnc1N)c1c(Cl)ccc(F)c1Cl [Crizotinib] (partner 1 µM)
How it was run: as §1

EHT 1864 + Linsitinib = compound: C1COCCN1CC2=CC(=O)C(=CO2)OCCCCCSC3=C4C=CC(=CC4=NC=C3)C(F)(F)F [EHT 1864] + C[C@]1(O)C[C@@H](c2nc(-c3ccc4ccc(-c5ccccc5)nc4c3)c3c(N)nccn32)C1 [Linsitinib] (partner 1 µM)
How it was run: as §1

EHT 1864 + Bortezomib = compound: C1COCCN1CC2=CC(=O)C(=CO2)OCCCCCSC3=C4C=CC(=CC4=NC=C3)C(F)(F)F [EHT 1864] + CC(C)C[C@H](NC(=O)[C@H](Cc1ccccc1)NC(=O)c1cnccn1)B(O)O [Bortezomib] (partner 0.002 µM)
How it was run: as §1

EHT 1864 + Lapatinib = compound: C1COCCN1CC2=CC(=O)C(=CO2)OCCCCCSC3=C4C=CC(=CC4=NC=C3)C(F)(F)F [EHT 1864] + CS(=O)(=O)CCNCc1ccc(-c2ccc3ncnc(Nc4ccc(OCc5cccc(F)c5)c(Cl)c4)c3c2)o1 [Lapatinib] (partner 2 µM)
How it was run: as §1

EHT 1864 + Alpelisib = compound: C1COCCN1CC2=CC(=O)C(=CO2)OCCCCCSC3=C4C=CC(=CC4=NC=C3)C(F)(F)F [EHT 1864] + Cc1nc(NC(=O)N2CCC[C@H]2C(N)=O)sc1-c1ccnc(C(C)(C)C(F)(F)F)c1 [Alpelisib] (partner 2 µM)
How it was run: as §1

EHT 1864 + Foretinib = compound: C1COCCN1CC2=CC(=O)C(=CO2)OCCCCCSC3=C4C=CC(=CC4=NC=C3)C(F)(F)F [EHT 1864] + COc1cc2c(Oc3ccc(NC(=O)C4(C(=O)Nc5ccc(F)cc5)CC4)cc3F)ccnc2cc1OCCCN1CCOCC1 [Foretinib] (partner 0.25 µM)
How it was run: as §1

EHT 1864 + Pictilisib = compound: C1COCCN1CC2=CC(=O)C(=CO2)OCCCCCSC3=C4C=CC(=CC4=NC=C3)C(F)(F)F [EHT 1864] + CS(=O)(=O)N1CCN(Cc2cc3nc(-c4cccc5[nH]ncc45)nc(N4CCOCC4)c3s2)CC1 [Pictilisib] (partner 1 µM)
How it was run: as §1

EHT 1864 = compound: C1COCCN1CC2=CC(=O)C(=CO2)OCCCCCSC3=C4C=CC(=CC4=NC=C3)C(F)(F)F [EHT 1864]
How it was run: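 On vehicle-anchored 1536-well plates, lung cancer cell lines held overnight at 37 °C were pinned with five library-drug doses (not always all listed) spaced by √10. With no medium change over 5 days, they were then fixed, permeabilised and Hoechst-stained in one step and imaged at 4×. MetaXpress counted nuclei, and viability is the median across plates of treated-well over vehicle-well nuclei. Acceptance needed control CV below 25% and at least one doubling.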

EHT 1864 + Tozasertib = compound: C1COCCN1CC2=CC(=O)C(=CO2)OCCCCCSC3=C4C=CC(=CC4=NC=C3)C(F)(F)F [EHT 1864] + Cc1cc(Nc2cc(N3CCN(C)CC3)nc(Sc3ccc(NC(=O)C4CC4)cc3)n2)n[nH]1 [Tozasertib] (partner 0.1 µM)
How it was run: as §1

EHT 1864 + OSI-027 = compound: C1COCCN1CC2=CC(=O)C(=CO2)OCCCCCSC3=C4C=CC(=CC4=NC=C3)C(F)(F)F [EHT 1864] + COc1cccc2cc(-c3nc([C@H]4CC[C@H](C(=O)O)CC4)n4ncnc(N)c34)[nH]c12 [OSI-027] (partner 0.5 µM)
How it was run: as §1

EHT 1864 + Phenformin = compound: C1COCCN1CC2=CC(=O)C(=CO2)OCCCCCSC3=C4C=CC(=CC4=NC=C3)C(F)(F)F [EHT 1864] + N=C(N)NC(=N)NCCc1ccccc1 [Phenformin] (partner 250 µM)
How it was run: as §1

EHT 1864 + Dasatinib = compound: C1COCCN1CC2=CC(=O)C(=CO2)OCCCCCSC3=C4C=CC(=CC4=NC=C3)C(F)(F)F [EHT 1864] + Cc1nc(Nc2ncc(C(=O)Nc3c(C)cccc3Cl)s2)cc(N2CCN(CCO)CC2)n1 [Dasatinib] (partner 0.075 µM)
How it was run: as §1

EHT 1864 + Luminespib = compound: C1COCCN1CC2=CC(=O)C(=CO2)OCCCCCSC3=C4C=CC(=CC4=NC=C3)C(F)(F)F [EHT 1864] + CCNC(=O)c1noc(-c2cc(C(C)C)c(O)cc2O)c1-c1ccc(CN2CCOCC2)cc1 [Luminespib] (partner 0.01 µM)
How it was run: as §1

NCI-H1299 gave a relative viability (EHT 1864 + Navitoclax; first compound 0.04 µM) of 1.02, a relative viability (EHT 1864 + Navitoclax; first compound 0.1265 µM) of 1.02 and a relative viability (EHT 1864 + Navitoclax; first compound 0.4 µM) of 1.05. The relative viability (EHT 1864 + Navitoclax; first compound 1.265 µM) was 0.986, the relative viability (EHT 1864 + Navitoclax; first compound 4 µM) was 0.984 and the relative viability (EHT 1864 + Olaparib; first compound 0.04 µM) was 0.96. It also gave a relative viability (EHT 1864 + Olaparib; first compound 0.1265 µM) of 0.939, a relative viability (EHT 1864 + Olaparib; first compound 0.4 µM) of 0.964 and a relative viability (EHT 1864 + Olaparib; first compound 1.265 µM) of 0.913. The relative viability (EHT 1864 + Olaparib; first compound 4 µM) was 0.893, the relative viability (EHT 1864 + Crizotinib; first compound 0.04 µM) was 0.928 and the relative viability (EHT 1864 + Crizotinib; first compound 0.1265 µM) was 0.975. The relative viability (EHT 1864 + Crizotinib; first compound 0.4 µM) was 0.95, the relative viability (EHT 1864 + Crizotinib; first compound 1.265 µM) was 0.925 and the relative viability (EHT 1864 + Crizotinib; first compound 4 µM) was 0.901. It also gave a relative viability (EHT 1864 + Linsitinib; first compound 0.04 µM) of 0.903, a relative viability (EHT 1864 + Linsitinib; first compound 0.1265 µM) of 0.877 and a relative viability (EHT 1864 + Linsitinib; first compound 0.4 µM) of 0.981. It also gave a relative viability (EHT 1864 + Linsitinib; first compound 1.265 µM) of 0.969, a relative viability (EHT 1864 + Linsitinib; first compound 4 µM) of 0.936 and a relative viability (EHT 1864 + Bortezomib; first compound 0.04 µM) of 1.02. For the same cell line, the relative viability (EHT 1864 + Bortezomib; first compound 0.1265 µM) was 0.986, the relative viability (EHT 1864 + Bortezomib; first compound 0.4 µM) was 0.993 and the relative viability (EHT 1864 + Bortezomib; first compound 1.265 µM) was 0.994. For the same cell line, the relative viability (EHT 1864 + Bortezomib; first compound 4 µM) was 0.917, the relative viability (EHT 1864 + Lapatinib; first compound 0.04 µM) was 0.969 and the relative viability (EHT 1864 + Lapatinib; first compound 0.1265 µM) was 0.904. It also gave a relative viability (EHT 1864 + Lapatinib; first compound 0.4 µM) of 0.949, a relative viability (EHT 1864 + Lapatinib; first compound 1.265 µM) of 0.931 and a relative viability (EHT 1864 + Lapatinib; first compound 4 µM) of 0.909. For the same cell line, the relative viability (EHT 1864 + Alpelisib; first compound 0.04 µM) was 0.973, the relative viability (EHT 1864 + Alpelisib; first compound 0.1265 µM) was 0.974 and the relative viability (EHT 1864 + Alpelisib; first compound 0.4 µM) was 0.983. For the same cell line, the relative viability (EHT 1864 + Alpelisib; first compound 1.265 µM) was 1.05, the relative viability (EHT 1864 + Alpelisib; first compound 4 µM) was 1.08 and the relative viability (EHT 1864 + Foretinib; first compound 0.04 µM) was 1.05. The relative viability (EHT 1864 + Foretinib; first compound 0.1265 µM) was 1.09, the relative viability (EHT 1864 + Foretinib; first compound 0.4 µM) was 1.06 and the relative viability (EHT 1864 + Foretinib; first compound 1.265 µM) was 1.04. It also gave a relative viability (EHT 1864 + Foretinib; first compound 4 µM) of 1.07, a relative viability (EHT 1864 + Pictilisib; first compound 0.04 µM) of 0.71 and a relative viability (EHT 1864 + Pictilisib; first compound 0.1265 µM) of 0.669. It also gave a relative viability (EHT 1864 + Pictilisib; first compound 0.4 µM) of 0.725, a relative viability (EHT 1864 + Pictilisib; first compound 1.265 µM) of 0.729 and a relative viability (EHT 1864 + Pictilisib; first compound 4 µM) of 0.684. For the same cell line, the relative viability (EHT 1864; 0.04 µM) was 1.01, the relative viability (EHT 1864; 0.1265 µM) was 0.976 and the relative viability (EHT 1864; 0.4 µM) was 0.964. For the same cell line, the relative viability (EHT 1864; 1.265 µM) was 0.979 and the relative viability (EHT 1864; 4 µM) was 0.956.
In the case of NCI-H1623, the relative viability (EHT 1864 + Tozasertib; first compound 0.04 µM) is reported as 0.418, the relative viability (EHT 1864 + Tozasertib; first compound 0.1265 µM) is reported as 0.394 and the relative viability (EHT 1864 + Tozasertib; first compound 0.4 µM) is reported as 0.445. For the same cell line, the relative viability (EHT 1864 + Tozasertib; first compound 1.265 µM) was 0.458, the relative viability (EHT 1864 + Tozasertib; first compound 4 µM) was 0.399 and the relative viability (EHT 1864 + OSI-027; first compound 0.04 µM) was 0.439. It also gave a relative viability (EHT 1864 + OSI-027; first compound 0.1265 µM) of 0.433, a relative viability (EHT 1864 + OSI-027; first compound 0.4 µM) of 0.474 and a relative viability (EHT 1864 + OSI-027; first compound 1.265 µM) of 0.475. For the same cell line, the relative viability (EHT 1864 + OSI-027; first compound 4 µM) was 0.432, the relative viability (EHT 1864 + Phenformin; first compound 0.04 µM) was 0.617 and the relative viability (EHT 1864 + Phenformin; first compound 0.1265 µM) was 0.665. The relative viability (EHT 1864 + Phenformin; first compound 0.4 µM) was 0.576, the relative viability (EHT 1864 + Phenformin; first compound 1.265 µM) was 0.617 and the relative viability (EHT 1864 + Phenformin; first compound 4 µM) was 0.539. The relative viability (EHT 1864 + Dasatinib; first compound 0.04 µM) was 0.641, the relative viability (EHT 1864 + Dasatinib; first compound 0.1265 µM) was 0.676 and the relative viability (EHT 1864 + Dasatinib; first compound 0.4 µM) was 0.514. It also gave a relative viability (EHT 1864 + Dasatinib; first compound 1.265 µM) of 0.583, a relative viability (EHT 1864 + Dasatinib; first compound 4 µM) of 0.477 and a relative viability (EHT 1864 + Foretinib; first compound 0.04 µM) of 0.937. For the same cell line, the relative viability (EHT 1864 + Foretinib; first compound 0.1265 µM) was 0.869, the relative viability (EHT 1864 + Foretinib; first compound 0.4 µM) was 0.855 and the relative viability (EHT 1864 + Foretinib; first compound 1.265 µM) was 0.959. For the same cell line, the relative viability (EHT 1864 + Foretinib; first compound 4 µM) was 0.959, the relative viability (EHT 1864 + Luminespib; first compound 0.04 µM) was 0.584 and the relative viability (EHT 1864 + Luminespib; first compound 0.1265 µM) was 0.522. For the same cell line, the relative viability (EHT 1864 + Luminespib; first compound 0.4 µM) was 0.445, the relative viability (EHT 1864 + Luminespib; first compound 1.265 µM) was 0.581 and the relative viability (EHT 1864 + Luminespib; first compound 4 µM) was 0.384. The relative viability (EHT 1864; 0.04 µM) was 0.995, the relative viability (EHT 1864; 0.1265 µM) was 0.972 and the relative viability (EHT 1864; 0.4 µM) was 1.02. The relative viability (EHT 1864; 1.265 µM) was 0.921 and the relative viability (EHT 1864; 4 µM) was 1.14.
